# Laboratory results reported in US11396502B2, “Substituted heterocyclic derivatives as PI3K inhibitors” (Incyte Corporation, priority 2018, dated 2022).
# Structures can show the parent of a compound that is named as a salt. Where two headings read alike, the source gives them in different places.
# What was measured:
# [1] = tested on: Phosphorylated Ribosomal Protein S6 (RPS6) in THP-1 cells; test: THP-1 RPS6 ELISA assay; format: cell-based, Human; conditions: Homo sapiens
# Protocol: Example A. THP-1 RPS6 ELISA Assay
# To measure the Phosphorylated Ribosomal Protein S6 (RPS6) in cell lysates, THP-1 cells (Human Acute Monocytic Leukemia) are purchased from ATCC (Manassas, Va.) and maintained in RPMI with 10% FBS (Gibco/Life Technologies, Carlsbad, Calif.). For the assay, THP-1 cells are serum starved overnight in RPMI, then plated in RPMI (2×10^5 cells/well in 90 μL) into 96-well flat-bottom tissue culture treated plates (Corning, Corning, N.Y.), in the presence or absence of a concentration range of test compounds. Covered plates are incubated for 2 hours at 37° C., 5% CO2 then treated with or without 10 nM MCP-1 (MYBioSource, San Diego, Calif.) for 15 minutes at 37° C., 5% CO2. Plates are centrifuged at 1600 RPM and supernatants are removed. Cells are lysed in Lysis Buffer (Cell Signaling, Danvers, Mass.) with Protease Inhibitor (Calbiochem/EMD, Germany), PMSF (Sigma, St Louis Mo.), HALTS (Thermo Fisher, Rockford, Ill.) for 30 min on wet ice. Cell lysates are frozen at −80° C. before testing. The lysates are tested in the Human/Mouse/Rat Phospho-RPS6 ELISA (R&D Systems, Inc. Minn, Minn.). The plate is measured using a microplate reader (SpectraMax M5—Molecular Devices, LLC Sunnyvale, Calif.) set to 450 nm with a wavelength correction of 540. IC50 determination is performed by fitting the curve of inhibitor percent inhibition versus the log of the inhibitor concentration using the GraphPad Prism 5.0 software.
# [2] = target: PI3Kδ (p110δ/p85α) (Homo sapiens (Human), UniProt O00329); test: PI3Kδ scintillation proximity assay; format: biochemical; conditions: recombinant human PI3Kδ 3.4 nM, 20 μM PIP2, 2 μM ATP, 120 min, room temperature
# Chain of PI3Kδ (p110δ/p85α) (O00329 whole entry): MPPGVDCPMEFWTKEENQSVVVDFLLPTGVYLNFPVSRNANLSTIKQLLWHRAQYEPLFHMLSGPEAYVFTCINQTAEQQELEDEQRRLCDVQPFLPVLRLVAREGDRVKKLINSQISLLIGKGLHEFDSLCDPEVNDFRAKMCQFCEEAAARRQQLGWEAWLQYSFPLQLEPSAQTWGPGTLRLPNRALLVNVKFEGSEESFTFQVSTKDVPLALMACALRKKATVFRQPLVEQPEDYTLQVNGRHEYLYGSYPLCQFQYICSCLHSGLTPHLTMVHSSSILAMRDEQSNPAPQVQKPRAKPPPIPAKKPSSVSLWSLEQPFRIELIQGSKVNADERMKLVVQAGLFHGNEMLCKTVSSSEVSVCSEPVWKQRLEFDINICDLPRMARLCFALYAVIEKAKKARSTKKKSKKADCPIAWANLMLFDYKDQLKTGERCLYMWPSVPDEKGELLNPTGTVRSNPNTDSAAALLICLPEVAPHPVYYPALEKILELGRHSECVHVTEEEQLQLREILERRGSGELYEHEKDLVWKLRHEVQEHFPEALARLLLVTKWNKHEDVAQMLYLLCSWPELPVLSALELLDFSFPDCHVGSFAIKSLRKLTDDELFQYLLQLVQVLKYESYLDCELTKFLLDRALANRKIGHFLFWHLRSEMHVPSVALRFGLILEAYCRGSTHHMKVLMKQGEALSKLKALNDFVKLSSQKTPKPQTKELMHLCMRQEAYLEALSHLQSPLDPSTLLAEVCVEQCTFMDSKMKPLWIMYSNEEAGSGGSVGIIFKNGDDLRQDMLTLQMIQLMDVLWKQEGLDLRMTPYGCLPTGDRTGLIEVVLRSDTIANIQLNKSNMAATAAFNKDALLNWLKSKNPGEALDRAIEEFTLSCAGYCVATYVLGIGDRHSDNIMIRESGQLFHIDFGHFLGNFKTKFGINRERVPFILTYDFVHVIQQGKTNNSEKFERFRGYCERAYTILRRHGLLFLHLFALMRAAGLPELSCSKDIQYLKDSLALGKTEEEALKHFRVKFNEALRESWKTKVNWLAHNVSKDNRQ
# Chain of PI3Kδ (p110δ/p85α) (P27986 whole entry partner): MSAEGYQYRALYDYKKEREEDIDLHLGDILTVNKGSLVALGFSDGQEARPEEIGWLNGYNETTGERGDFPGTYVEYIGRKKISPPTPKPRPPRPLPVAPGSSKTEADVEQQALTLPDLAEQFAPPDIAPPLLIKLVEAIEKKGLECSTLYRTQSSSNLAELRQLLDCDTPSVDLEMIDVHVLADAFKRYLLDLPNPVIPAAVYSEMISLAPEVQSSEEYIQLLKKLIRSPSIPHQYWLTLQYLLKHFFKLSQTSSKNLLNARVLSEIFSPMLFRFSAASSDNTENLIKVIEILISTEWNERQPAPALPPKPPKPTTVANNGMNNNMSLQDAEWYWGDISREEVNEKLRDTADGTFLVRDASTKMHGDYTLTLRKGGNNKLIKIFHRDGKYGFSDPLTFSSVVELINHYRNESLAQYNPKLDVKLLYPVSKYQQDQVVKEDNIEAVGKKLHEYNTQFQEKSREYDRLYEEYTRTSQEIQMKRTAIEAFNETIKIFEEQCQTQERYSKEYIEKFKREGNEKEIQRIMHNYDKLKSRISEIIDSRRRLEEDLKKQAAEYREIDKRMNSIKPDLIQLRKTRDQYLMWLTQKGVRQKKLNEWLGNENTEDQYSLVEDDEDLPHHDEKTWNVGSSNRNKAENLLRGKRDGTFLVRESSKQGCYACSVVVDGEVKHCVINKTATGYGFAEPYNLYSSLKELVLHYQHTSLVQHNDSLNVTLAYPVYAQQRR
# Excerpt: Example C. PI3Kδ Scintillation Proximity Assay Materials: [γ-^33P]ATP (10 mCi/mL) and Wheat Germ Agglutinin (WGA) YSi SPA Scintillation Beads was purchased from Perkin Elmer (Waltham, Mass.). Lipid kinase substrate, D-myo-Phosphatidylinositol 4,5-bisphosphate (PtdIns(4,5)P2)D (+)-sn-1,2-di-O-octanoylglyceryl, 3-O-phospho linked (PIP2), CAS 204858-53-7, was purchased from Echelon Biosciences (Salt Lake City, Utah). PI3Kδ (p110δ/p85α) Recombinant Human Protein was purchased from Eurofins (St Charles, Mo.). ATP, MgCl2, DTT, EDTA, MOPS and CHAPS were purchased from Sigma Aldrich (St. Louis, Mo.). The kinase reaction was conducted in polystyrene 384-well Greiner Bio-one white plate from Thermo Fisher Scientific in a final volume of 25 μL. Inhibitors were first diluted serially in DMSO and added to the plate wells before the addition of other reaction components. The final concentration of DMSO in the assay was 2%. The PI3Kδ assay was carried out at room temperature in 20 mM MOPS, pH 6.7, 10 mM MgCl2, 5 mM DTT and CHAPS 0.03%. Reactions were initiated by the addition of ATP, the final reaction mixture consisted of 20 μM PIP2, 2 μM ATP, 0.5 μCi [γ-^33P] ATP, 3.4 nM PI3Kδ. Reactions were incubated for 120 min and terminated by the addition of 40 μL SPA beads suspended in quench buffer: 163 mM potassium phosphate pH 7.8, 20% glycerol, 25 mM EDTA. The final concentration of SPA beads is 1.0 mg/mL. After the plate sealing, plates were shaken overnight at room temperature and centrifuged at 1500 rpm for 10 min, the radioactivity of the product was determined by scintillation counting on Topcount (PerkinElmer). IC50 determination was performed by fitting the curve of percent of the solvent control activity versus the log of the inhibitor concentration using the GraphPad Prism 6.0 software.
# [3] = target: PI3Kγ (p110γ) (Homo sapiens (Human), UniProt P48736); test: PI3K-γ scintillation proximity assay; format: biochemical; conditions: recombinant human PI3Kγ 13 nM, 20 μM PIP2, 2 μM ATP, 120 min, room temperature
# Chain of PI3Kγ (p110γ) (P48736 whole entry): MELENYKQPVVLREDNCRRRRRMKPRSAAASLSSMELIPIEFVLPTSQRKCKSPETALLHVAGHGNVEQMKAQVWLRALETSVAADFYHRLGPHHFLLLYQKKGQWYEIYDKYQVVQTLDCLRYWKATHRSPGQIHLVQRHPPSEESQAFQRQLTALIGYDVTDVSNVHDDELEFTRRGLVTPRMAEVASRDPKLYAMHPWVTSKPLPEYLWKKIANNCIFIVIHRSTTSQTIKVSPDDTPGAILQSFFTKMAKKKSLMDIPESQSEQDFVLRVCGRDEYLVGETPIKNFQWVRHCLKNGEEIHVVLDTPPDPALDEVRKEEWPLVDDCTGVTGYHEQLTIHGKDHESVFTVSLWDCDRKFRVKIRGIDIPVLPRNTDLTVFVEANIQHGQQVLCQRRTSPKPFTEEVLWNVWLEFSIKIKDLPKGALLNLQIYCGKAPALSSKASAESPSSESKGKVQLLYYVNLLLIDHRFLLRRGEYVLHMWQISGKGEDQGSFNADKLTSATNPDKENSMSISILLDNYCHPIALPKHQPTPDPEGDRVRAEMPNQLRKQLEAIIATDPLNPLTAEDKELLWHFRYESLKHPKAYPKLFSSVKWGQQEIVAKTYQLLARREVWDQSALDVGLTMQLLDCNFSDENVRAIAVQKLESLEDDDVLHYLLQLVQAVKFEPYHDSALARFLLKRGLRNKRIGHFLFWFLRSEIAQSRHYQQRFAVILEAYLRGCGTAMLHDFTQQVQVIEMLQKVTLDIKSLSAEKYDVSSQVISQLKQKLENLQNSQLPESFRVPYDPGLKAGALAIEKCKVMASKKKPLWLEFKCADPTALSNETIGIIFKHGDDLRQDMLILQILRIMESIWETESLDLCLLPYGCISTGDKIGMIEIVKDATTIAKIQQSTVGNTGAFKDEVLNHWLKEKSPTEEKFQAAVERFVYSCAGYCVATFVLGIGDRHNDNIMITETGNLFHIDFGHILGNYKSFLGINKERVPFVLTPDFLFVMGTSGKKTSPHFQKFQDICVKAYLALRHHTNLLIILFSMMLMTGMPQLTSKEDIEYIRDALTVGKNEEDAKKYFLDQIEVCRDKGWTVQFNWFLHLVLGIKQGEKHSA
# Excerpt: Example B. PI3K-γ Scintillation Proximity Assay Materials: [γ-^33P]ATP (10 mCi/mL) and Wheat Germ Agglutinin (WGA) YSi SPA Scintillation Beads was purchased from Perkin Elmer (Waltham, Mass.). Lipid kinase substrate, D-myo-Phosphatidylinositol 4,5-bisphosphate (PtdIns(4,5)P2)D (+)-sn-1,2-di-O-octanoylglyceryl, 3-O-phospho linked (PIP2), CAS 204858-53-7, was purchased from Echelon Biosciences (Salt Lake City, Utah). PI3Kγ (p110γ) Recombinant Human Protein was purchased from Life technology (Grand Island, N.Y.). ATP, MgCl2, DTT, EDTA, MOPS and CHAPS were purchased from Sigma Aldrich (St. Louis, Mo.). The kinase reaction was conducted in polystyrene 384-well Greiner Bio-one white plate from Thermo Fisher Scientific in a final volume of 25 μL. Inhibitors were first diluted serially in DMSO and added to the plate wells before the addition of other reaction components. The final concentration of DMSO in the assay was 2%. The PI3Kγ assay was carried out at room temperature in 20 mM MOPS, pH 6.7, 10 mM MgCl2, 5 mM DTT and CHAPS 0.03%. Reactions were initiated by the addition of ATP, the final reaction mixture consisted of 20 μM PIP2, 2 μM ATP, 0.5 μCi [γ-^33P] ATP, 13 nM PI3Kγ. Reactions were incubated for 120 min and terminated by the addition of 40 μL SPA beads suspended in quench buffer: 163 mM potassium phosphate pH 7.8, 20% glycerol, 25 mM EDTA. The final concentration of SPA beads is 1.0 mg/mL. After the plate sealing, plates were shaken overnight at room temperature and centrifuged at 1500 rpm for 10 min, the radioactivity of the product was determined by scintillation counting on Topcount (Perkin-Elmer). IC50 determination was performed by fitting the curve of percent of the solvent control activity versus the log of the inhibitor concentration using the GraphPad Prism 6.0 software.
# [4] = THP-1, serum starved THP-1 cells, 2 hours compound, 10 nM MCP-1 for 15 minutes, Phospho-RPS6 ELISA, read-out: PI3Kγ_THP1_RPS6_ELISA IC50
# [5] = THP-1, read-out: PI3Kγ_THP1_RPS6_ELISA IC50 (nM)
Structure (SMILES),"IC50 [1, 4] [nM]",IC50 [2] [nM],IC50 [3] [nM],"IC50 [1, 5] [nM]"
"Cc1[nH]c(-c2cc(-c3ccc4c(c3)CN([C@@H](C)C3CC3)C4=O)ccn2)nc1C(=O)NC1CCOCC1 [Example 4, (S)-2-(4-(2-(1-Cyclopropylethyl)-1-oxoisoindolin-5-yl)pyridin-2-yl)-5-methyl-N-(tetrahydro-2H-pyran-4-yl)-1H-imidazole-4-carboxamide trifluoroacetate salt]",> 1000,500 to 2000,< 100,–
"Cc1[nH]c(-c2cc(-c3ccc4c(c3)CN([C@@H](C)C3CC3)C4=O)ccn2)nc1C(=O)N(C)C [Example 5, (S)-2-(4-(2-(1-Cyclopropylethyl)-1-oxoisoindolin-5-yl)pyridin-2-yl)-N,N,5-trimethyl-1H-imidazole-4-carboxamide trifluoroacetate salt]",> 1000,> 2000,< 100,–
"CNC(=O)c1nc(-c2cc(-c3ccc4c(c3)CN([C@@H](C)C3CC3)C4=O)ccn2)[nH]c1C [Example 6, (S)-2-(4-(2-(1-Cyclopropylethyl)-1-oxoisoindolin-5-yl)pyridin-2-yl)-N,5-dimethyl-1H-imidazole-4-carboxamide trifluoroacetate salt]",> 1000,> 2000,< 100,–
"CNC(=O)c1nc(-c2cc(-c3cc4c(c(S(C)(=O)=O)c3)C(=O)N([C@@H](C)C3CC3)C4)ccn2)[nH]c1C [Example 7, (S)-2-(4-(2-(1-Cyclopropylethyl)-7-(methylsulfonyl)-1-oxoisoindolin-5-yl)pyridin-2-yl)-N,4-dimethyl-1H-imidazole-5-carboxamide, trifluoroacetate salt]",100 to 500,500 to 2000,< 100,–
"Cc1[nH]c(-c2cc(-c3cc4c(c(S(C)(=O)=O)c3)C(=O)N([C@@H](C)C3CC3)C4)ccn2)nc1C(=O)NC(C)C [Example 7a, (S)-2-(4-(2-(1-Cyclopropylethyl)-7-(methylsulfonyl)-1-oxoisoindolin-5-yl)pyridin-2-yl)-N-isopropyl-4-methyl-1H-imidazole-5-carboxamide, trifluoroacetate salt]",–,100 to 500,< 100,< 100
"Cc1[nH]c(-c2cc(-c3cc4c(c(S(C)(=O)=O)c3)C(=O)N([C@@H](C)C3CC3)C4)ccn2)nc1C(=O)NC1CCOCC1 [Example 7b, (S)-2-(4-(2-(1-Cyclopropylethyl)-7-(methylsulfonyl)-1-oxoisoindolin-5-yl)pyridin-2-yl)-4-methyl-N-(tetrahydro-2H-pyran-4-yl)-1H-imidazole-5-carboxamide, trifluoroacetate salt]",500 to 1000,100 to 500,< 100,–
"Cc1[nH]c(-c2cc(-c3cc4c(c(S(C)(=O)=O)c3)C(=O)N([C@@H](C)C3CC3)C4)ccn2)nc1C(=O)NC12CC(C1)C2 [Example 7c, (S)-N-(Bicyclo[1.1.1]pentan-1-yl)-2-(4-(2-(1-cyclopropylethyl)-7-(methylsulfonyl)-1-oxoisoindolin-5-yl)pyridin-2-yl)-4-methyl-1H-imidazole-5-carboxamide, trifluoroacetate salt]",> 1000,100 to 500,< 100,–
"Cc1[nH]c(-c2cc(-c3cc4c(c(S(C)(=O)=O)c3)C(=O)N([C@@H](C)C3CC3)C4)ccn2)nc1C(=O)N1CC(F)(F)C1 [Example 7d, (S)-2-(1-Cyclopropylethyl)-5-(2-(5-(3,3-difluoroazetidine-1-carbonyl)-4-methyl-1H-imidazol-2-yl)pyridin-4-yl)-7-(methylsulfonyl)isoindolin-1-one, trifluoroacetate salt]",100 to 500,100 to 500,< 100,–
"Cc1[nH]c(-c2cc(-c3cc4c(c(S(C)(=O)=O)c3)C(=O)N([C@@H](C)C3CC3)C4)ccn2)nc1C(=O)N1CC(O)C1 [Example 7e, (S)-2-(1-Cyclopropylethyl)-5-(2-(5-(3-hydroxyazetidine-1-carbonyl)-4-methyl-1H-imidazol-2-yl)pyridin-4-yl)-7-(methylsulfonyl)isoindolin-1-one, trifluoroacetate salt]",> 1000,100 to 500,< 100,–
"Cc1[nH]c(-c2cc(-c3cc4c(c(S(C)(=O)=O)c3)C(=O)N([C@@H](C)C3CC3)C4)ccn2)nc1C(=O)NC12CCC(C#N)(C1)C2 [Example 7h, (S)-N-(4-Cyanobicyclo[2.1.1]hexan-1-yl)-2-(4-(2-(1-cyclopropylethyl)-7-(methylsulfonyl)-1-oxoisoindolin-5-yl)pyridin-2-yl)-4-methyl-1H-imidazole-5-carboxamide, trifluoroacetate salt]",100 to 500,< 100,< 100,–
"Cc1[nH]c(-c2cc(-c3cc4c(c(S(C)(=O)=O)c3)C(=O)N([C@@H](C)C3CC3)C4)ccn2)nc1C(=O)NC1CC2(COC2)C1 [Example 7i, (S)-2-(4-(2-(1-Cyclopropylethyl)-7-(methylsulfonyl)-1-oxoisoindolin-5-yl)pyridin-2-yl)-4-methyl-N-(2-oxaspiro[3.3]heptan-6-yl)-1H-imidazole-5-carboxamide, trifluoroacetate salt]",100 to 500,< 100,< 100,–
"Cc1[nH]c(-c2cc(-c3cc4c(c(S(C)(=O)=O)c3)C(=O)N([C@@H](C)C3CC3)C4)ccn2)nc1C(=O)N1CCC1 [Example 7j, (S)-5-(2-(5-(Azetidine-1-carbonyl)-4-methyl-1H-imidazol-2-yl)pyridin-4-yl)-2-(1-cyclopropylethyl)-7-(methylsulfonyl)isoindolin-1-one, trifluoroacetate salt]",–,100 to 500,< 100,100 to 500
